The values below come from patent publication US12630528B2, “Amino aryl derivative useful as diacylglycerol acyltransferase 2 inhibitor and use thereof” (LG CHEM, LTD., priority 2019, dated 2026).

The structures appear in SMILES notation. Some results are limits rather than exact numbers.

The target of this assay is T1, human DGAT2 (Homo sapiens, UniProt Q96PD7).
T1 construct: FLAG (DYKDDDDK); made in house; host or cells: Sf-21 insect cells (BacPAK baculovirus system); membrane fraction used
T1 sequence (Q96PD7 1-388): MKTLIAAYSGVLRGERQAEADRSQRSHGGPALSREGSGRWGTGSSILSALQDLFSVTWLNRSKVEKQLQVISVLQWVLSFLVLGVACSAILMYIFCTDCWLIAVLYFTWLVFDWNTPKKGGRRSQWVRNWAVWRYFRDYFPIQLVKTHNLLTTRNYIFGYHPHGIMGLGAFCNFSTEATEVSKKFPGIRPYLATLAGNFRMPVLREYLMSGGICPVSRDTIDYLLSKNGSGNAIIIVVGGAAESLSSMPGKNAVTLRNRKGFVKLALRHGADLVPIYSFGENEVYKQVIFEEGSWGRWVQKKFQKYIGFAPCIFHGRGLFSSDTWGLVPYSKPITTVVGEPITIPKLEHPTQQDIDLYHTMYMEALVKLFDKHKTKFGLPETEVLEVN
Put plainly: DGAT2 enzyme activity inhibition, Phospholipid FlashPlate SPA. The assay is classed as biochemical. The following applies: recombinant human DGAT2 membrane protein from Sf-21 cells; inhibition of [14C]-TG production; 37° C. The method, then:
In order to prepare the pBacPAK9-DGAT2, which is DGAT2 expression vector, the human DGAT2 gene amplified by polymerase chain reaction (PCR) was cloned into the EcoR1 and Xho1 sites of the pBacPAK9 (clonctech) vector. The nucleotide sequence of the primers used in PCR was the forward primer 5′ […] (SEQ. ID. NO: 2). The composition of the reaction solution was to contain 50 ng of cDNA clone (OriGene), 200 μM of dATP, dCTP, dTTP, dGTP, 200 nM of each primer, 1 unit of Tag DNA Polymerase (Toyobo), 1×PCR buffer, and the final volume was adjusted to 20 μl. The reaction conditions were denatured at 95° C. for 5 minutes, followed by 30 times of 94° C. for 20 seconds, 60° C. for 20 seconds, and 72° C. for 90 seconds, followed by further reaction at 72° C. for 7 minutes.
Recombinant human DGAT2 protein was expressed in Sf-21 cells, which are insect cells, by using the BacPack baculovirus expression system (Clontech). The brief manufacturing process is as follows. First, the pBacPAK9-DGAT2 expression vector was transfected with BacPAK6 virus DNA (Bsu36I digest) into sf21 cells using Bacfectin to prepare a recombinant DGAT2 expressing baculovirus. The thus prepared baculovirus was infected with Sf-21 cells at 10 MOI (multiplicity of infection), and after 72 hours, infected insect cells were collected and membrane proteins were isolated. For membrane protein separation, the cell pellet was dissolved in a sucrose solution containing 250 mM sucrose, 10 mM Tris (pH 7.4), and 1 mM ethylenediamine-tetraacetic acid (EDTA), and then homogenized by using a dounce homogenizer, and the supernatant was taken by centrifuging at 600×g for 15 minutes, and centrifuged at 100,000×g for 1 hour to discard the supernatant, and the remaining pellet was resuspended in 20 mM HEPES buffer (pH 7.4). The prepared DGAT2 overexpressing membrane protein was dispensed in 100 μl and stored at −80° C. until use. Protein concentration was quantified by using the BCA Protein Assay Kit (Thermo Scientific).
In vitro DGAT2 analysis was performed using a Phospholipid Flash Plate (PerkinElmer) based on the principle of SPA (Scintilation Proximity Assay). First, DGAT2 inhibition compounds serially diluted 5 times from 3 nM to 10 μM (final concentration, 1% DMSO) were mixed in a buffer solution containing 2 μg DGAT2-membrane protein and 20 mM HEPES, 20 mM MgCl2, 1 mg/mL BSA, 50 μM 1,2 sn-oleoyl glycerol (Sigma), put in a 96-well flash plate (FlashPlate) and reacted at 37° C. for 20 minutes, and then 1 μM [14C] ole oil CoA (PerkinElmer, NEC651050UC) was added to be a final volume of 100 μL and further reacted at 37° C. for 15 minutes. After the enzymatic reaction was completed, 100 μL of isopropanol was added, the plate was sealed with a film, and the plate was shaken slowly in a plate shaker. The next day, the amplified scintillation signal (cpm) in Topcounter (Packard) was measured to measure the degree of production of [14C]-labeled triacyl glycerol (TG) as a reaction product. The measured value when the compound was not treated was used as a positive control, and the measured value of the compound treated group was calculated as a relative % to measure the inhibition effect of the compound on TG production.
In general, IC50 refers to the concentration that inhibits the measured activity by half. As for `CCOc1ccccc1O[C@@H]1CCCN(c2cncc(Nc3cccc(-c4ccc(CC(C)(C)C(=O)O)cc4)c3)n2)C1` [Example 30, (R)-3-(3′-((6-(3-(2-ethoxyphenoxy)piperidin-1-yl)pyrazin-2-yl)amino)-[1,1′-biphenyl]-4-yl)-2,2-dimethylpropanoic Acid], the IC50 is 2400 nM. Take `CCOc1ccccc1O[C@@H]1CCCN(c2cncc(Nc3ccccn3)n2)C1` [Example 31, (R)-6-(3-(2-ethoxyphenoxy)piperidin-1-yl)-N-(pyridin-2-yl)pyrazin-2-amine]: the concentration for half-maximal inhibition (IC50) was found to be 130 nM. `CCOc1ccccc1O[C@@H]1CCCN(c2cncc(Nc3ccc(C(=O)O)cn3)n2)C1` [Example 32, (R)-6-((6-(3-(2-ethoxyphenoxy)piperidin-1-yl)pyrazin-2-yl)amino)nicotinic Acid]: the IC50 was greater than 10000 nM. With `CCOc1ccccc1O[C@@H]1CCCN(c2cncc(Nc3cc(C(=O)O)ccn3)n2)C1` [Example 33, (R)-2-((6-(3-(2-ethoxyphenoxy)piperidin-1-yl)pyrazin-2-yl)amino)isonicotinic Acid], the IC50 was greater than 10000 nM. As to `CCOc1ccccc1O[C@@H]1CCCN(c2cncc(Nc3ncccc3C(=O)O)n2)C1` [Example 34, (R)-2-((6-(3-(2-ethoxyphenoxy)piperidin-1-yl)pyrazin-2-yl)amino)nicotinic Acid], the IC50 was greater than 10000 nM. Under `CCOc1ccccc1O[C@@H]1CCCN(c2cncc(Nc3cc(C(C)(C)C(=O)O)ccn3)n2)C1` [Example 35, (R)-2-(2-((6-(3-(2-ethoxyphenoxy)piperidin-1-yl)pyrazin-2-yl)amino)pyridin-4-yl)-2-methylpropanoic Acid] stands 440 nM; under `CCOc1ccccc1O[C@@H]1CCCN(c2cncc(Nc3ccc(CC(=O)O)cn3)n2)C1` [Example 36, (R)-2-(6-((6-(3-(2-ethoxyphenoxy)piperidin-1-yl)pyrazin-2-yl)amino)pyridin-3-yl)acetic Acid], greater than 10000 nM; under `CCOc1ccccc1O[C@@H]1CCCN(c2cncc(Nc3ccc(/C=C/C(=O)O)cn3)n2)C1` [Example 37, (R,E)-3-(6-((6-(3-(2-ethoxyphenoxy)piperidin-1-yl)pyrazin-2-yl)amino)pyridin-3-yl)acrylic Acid], greater than 10000 nM. Regarding `CCOc1ccccc1O[C@@H]1CCCN(c2cncc(Nc3ccc(CCC(=O)O)cn3)n2)C1` [Example 38, (R)-3-(6-((6-(3-(2-ethoxyphenoxy)piperidin-1-yl)pyrazin-2-yl)amino)pyridin-3-yl)propanoic Acid], the 50% inhibitory concentration (IC50) was greater than 10000 nM.

For `CCOc1ccccc1O[C@@H]1CCCN(c2cncc(Nc3cc(CC(C)(C)C(=O)O)ccn3)n2)C1` [Example 39, (R)-3-(2-((6-(3-(2-ethoxyphenoxy)piperidin-1-yl)pyrazin-2-yl)amino)pyridin-4-yl)-2,2-dimethylpropanoic Acid], the concentration for half-maximal inhibition (IC50) is 2700 nM. Under `CCOc1ccccc1O[C@@H]1CCCN(c2cncc(Nc3ccc(-c4ccccc4)cn3)n2)C1` [Example 40, (R)-6-(3-(2-ethoxyphenoxy)piperidin-1-yl)-N-(5-phenylpyridin-2-yl)pyrazin-2-amine] stands 1700 nM. With `CCOc1ccccc1O[C@@H]1CCCN(c2cncc(Nc3cc(-c4ccccc4)ccn3)n2)C1` [Example 41, (R)-6-(3-(2-ethoxyphenoxy)piperidin-1-yl)-N-(4-phenylpyridin-2-yl)pyrazin-2-amine], the IC50 came out at 600 nM. Under `CCOc1ccccc1O[C@@H]1CCCN(c2cncc(Nc3cc(-c4cccc(C(C)(C)C(=O)O)c4)ccn3)n2)C1` [Example 42, (R)-2-(3-(2-((6-(3-(2-ethoxyphenoxy)piperidin-1-yl)pyrazin-2-yl)amino)pyridin-4-yl)phenyl)-2-methylpropanoic Acid] stands 3700 nM; under `CCOc1ccccc1O[C@@H]1CCCN(c2cncc(Nc3cc(-c4ccc(C(C)(C)C(=O)O)cc4)ccn3)n2)C1` [Example 43, (R)-2-(4-(2-((6-(3-(2-ethoxyphenoxy)piperidin-1-yl)pyrazin-2-yl)amino)pyridin-4-yl)phenyl)-2-methylpropanoic Acid], 3100 nM; under `CCOc1ccccc1O[C@@H]1CCCN(c2cncc(Nc3cc(-c4cccc(CC(C)(C)C(=O)O)c4)ccn3)n2)C1` [Example 44, (R)-3-(3-(2-((6-(3-(2-ethoxyphenoxy)piperidin-1-yl)pyrazin-2-yl)amino)pyridin-4-yl)phenyl)-2,2-dimethylpropanoic Acid], 4000 nM. `CCOc1ccccc1O[C@@H]1CCCN(c2cncc(Nc3cc(-c4ccc(CC(C)(C)C(=O)O)cc4)ccn3)n2)C1` [Example 45, (R)-3-(4-(2-((6-(3-(2-ethoxyphenoxy)piperidin-1-yl)pyrazin-2-yl)amino)pyridin-4-yl)phenyl)-2,2-dimethylpropanoic Acid]: the 50% inhibitory concentration (IC50) turned out to be 770 nM. As to `CCOc1ccccc1O[C@@H]1CCCN(c2cncc(Nc3cc(-c4cccc(CCC(=O)O)c4)ccn3)n2)C1` [Example 46, (R)-3-(3-(2-((6-(3-(2-ethoxyphenoxy)piperidin-1-yl)pyrazin-2-yl)amino)pyridin-4-yl)phenyl)propanoic Acid], the IC50 came out at 1800 nM.

Take `CCOc1ccccc1O[C@@H]1CCCN(c2cncc(Nc3cncc(-c4cccc(CC(C)(C)C(=O)O)c4)c3)n2)C1` [Example 47, (R)-3-(3-(5-((6-(3-(2-ethoxyphenoxy)piperidin-1-yl)pyrazin-2-yl)amino)pyridin-3-yl)phenyl)-2,2-dimethylpropanoic Acid]: the concentration for half-maximal inhibition (IC50) was greater than 10000 nM. With `CCOc1ccccc1O[C@@H]1CCCN(c2cncc(Nc3ccc(-c4cccc(CC(C)(C)C(=O)O)c4)nc3)n2)C1` [Example 48, (R)-3-(3-(5-((6-(3-(2-ethoxyphenoxy)piperidin-1-yl)pyrazin-2-yl)amino)pyridin-2-yl)phenyl)-2,2-dimethylpropanoic Acid], the 50% inhibitory concentration (IC50) is 1800 nM. Next, `CCOc1ccccc1O[C@@H]1CCCN(c2cncc(Nc3ccc(C(C)(C)C(=O)O)cn3)n2)C1` [Example 49]: greater than 10000 nM; `CCOc1ccccc1O[C@@H]1CCCN(c2cncc(Nc3cccc(C(C)(C)C(=O)O)n3)n2)C1` [Example 50, (R)-2-(6-((6-(3-(2-ethoxyphenoxy)piperidin-1-yl)pyrazin-2-yl)amino)pyridin-2-yl)-2-methylpropanoic Acid]: 7200 nM. `CCOc1ccccc1O[C@@H]1CCCN(c2cncc(Nc3cccc(CC(C)(C)C(=O)O)n3)n2)C1` [Example 51, (R)-3-(6-((6-(3-(2-ethoxyphenoxy)piperidin-1-yl)pyrazin-2-yl)amino)pyridin-2-yl)-2,2-dimethylpropanoic Acid]: the 50% inhibitory concentration (IC50) came out at 1900 nM. On to `CCOc1ccccc1O[C@@H]1CCCN(c2cncc(Nc3cccc(N4CCC(C(=O)O)C4)n3)n2)C1` (stereo partly drawn) [Example 52, 1-(6-((6-((R)-3-(2-ethoxyphenoxy)piperidin-1-yl)pyrazin-2-yl)amino)pyridin-2-yl)pyrrolidine-3-carboxylic Acid], for which the concentration for half-maximal inhibition (IC50) is 730 nM.

`CCOc1ccccc1O[C@@H]1CCCN(c2cncc(Nc3cccc(N4CCC(C)(C(=O)O)C4)n3)n2)C1` (stereo partly drawn) [Example 53, 1-(6-((6-((R)-3-(2-ethoxyphenoxy)piperidin-1-yl)pyrazin-2-yl)amino)pyridin-2-yl)-3-methylpyrrolidine-3-carboxylic Acid]: the concentration for half-maximal inhibition (IC50) was determined as 510 nM.
